Test results from patent US11492375B2, “Cyclic peptide immunomodulators” (Bristol-Myers Squibb Company, priority 2017, dated 2022).
Like-named read-outs stand apart in the source and are kept apart here.

Key:
[1] = target: PD-1-Ig binding to PD-L1-TVMV-His (PD-L1-His) (Homo sapiens (Human), UniProt Q9NZQ7); test: PD-1/PD-L1 Homogenous Time-Resolved Fluorescence (HTRF) binding assay; settings: PD-1-Ig/PD-L1-His binding, read-out: HTRF IC50 (μM) or Range
Text: The ability of the macrocyclic peptides of the present disclosure to bind to PD-L1 was investigated using a PD-1/PD-L1 Homogenous Time-Resolved Fluorescence (HTRF) binding assay.
Homogenous Time-Resolved Fluorescence (HTRF) Assays of Binding of Soluble PD-1 to Soluble PD-L1. Soluble PD-1 and soluble PD-L1 refers to proteins with carboxyl-end truncations that remove the transmembrane-spanning regions and are fused to heterologous sequences, specifically the Fc portion of the human immunoglobuling G sequence (Ig) or the hexahistidine epitope tag (His). All binding studies were performed in an HTRF assay buffer consisting of dPBS supplemented with 0.1% (w/v) bovine serum albumin and 0.05% (v/v) Tween-20. For the PD-1-Ig/PD-L1-His binding assay, inhibitors were pre-incubated with PD-L1-His (10 nM final) for 15m in 4 μl of assay buffer, followed by addition of PD-1-Ig (20 nM final) in 1 μl of assay buffer and further incubation for 15 m. PD-L1 fusion proteins from either human, cynomologous macaques, mouse, or other species were used. HTRF detection was achieved using europium crypate-labeled anti-Ig monoclonal antibody (1 nM final) and allophycocyanin (APC) labeled anti-His monoclonal antibody (20 nM final). Antibodies were diluted in HTRF detection buffer and 5 μl was dispensed on top of binding reaction. The reaction was allowed to equilibrate for 30 minutes and signal (665 nm/620 nm ratio) was obtained using an EnVision fluorometer. Additional binding assays were established between PD-1-Ig/PD-L2-His (20 and 5 nM, respectively), CD8O-His/PD-L1-Ig (100 and 10 nM, respectively) and CD80-His/CTLA4-Ig (10 and 5 nM, respectively). Binding/competition studies between biotinylated Compound No. 71 and human PD-L1-His were performed as follows. Macrocyclic peptide inhibitors were pre-incubated with PD-L1-His (10 nM final) for 60 minutes in 4 μl of assay buffer followed by addition of biotinylated Compound No. 71 (0.5 nM final) in 1 μl of assay buffer. Binding was allowed to equilibrate for 30 minutes followed by addition of europium crypated labeled Streptavidin (2.5 pM final) and APC-labeled anti-His (20 nM final) in 5 μl of HTRF buffer. The reaction was allowed to equilibrate for 30 m and signal (665 nm/620 nm ratio) was obtained using an EnVision fluorometer.
Recombinant Proteins. Carboxyl-truncated human PD-1 (amino acids 25-167) with a C-terminal human Ig epitope tag [hPD-1 (25-167)-35-IG] and human PD-L1 (amino acids 18-239) with a C-terminal His epitope tag [hPD-L1(19-239)-tobacco vein mottling virus protease cleavage site (TVMV)-His] were expressed in HEK293T cells and purified sequentially by recombinant Protein A affinity chromatography and size exclusion chromatography. Human PD-L2-His (Sino Biologicals), CD80-His (Sino Biologicals), CTLA4-Ig (RnD Systems) were all obtained through commercial sources.

[2] = oral formulation ENTOCORT EC, extensive first-pass metabolism; cited from earlier work

Chain of PD-1-Ig binding to PD-L1-TVMV-His (PD-L1-His) (Q9NZQ7 other isoform, or with tags, fused parts or gaps): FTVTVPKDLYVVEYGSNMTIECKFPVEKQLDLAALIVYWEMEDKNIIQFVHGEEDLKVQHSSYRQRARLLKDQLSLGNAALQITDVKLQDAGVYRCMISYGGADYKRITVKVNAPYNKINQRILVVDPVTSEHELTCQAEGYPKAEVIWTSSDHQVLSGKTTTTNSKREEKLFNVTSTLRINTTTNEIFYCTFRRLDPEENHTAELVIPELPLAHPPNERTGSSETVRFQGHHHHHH

SMILES | IC50 ([1]; value given as range class) | further results
C[C@@H]1NC(=O)[C@@H]2CCCC/C=C\CCCC[C@@H](C(=O)N2C)N(C)C(=O)[C@H](Cc2c[nH]c3ccccc23)NC(=O)[C@H](CO)NC(=O)[C@H](Cc2c[nH]c3ccccc23)NC(=O)[C@@H]2C[C@@H](O)CN2C(=O)[C@H](CCC(N)=O)NC(=O)[C@H](Cc2cnc[nH]2)NC(=O)[C@@H]2CCCN2C(=O)[C@H](CC(=O)O)NC(=O)[C@H](C)N(C)C(=O)[C@H](Cc2ccc(O)cc2)NC(=O)CSC[C@@H](C(=O)NCC(N)=O)NC1=O [Example 1113] | 0.002 to 0.0099 µM | 
C[C@@H]1NC(=O)[C@@H]2CCCC/C=C\CCCC[C@@H](C(=O)N2C)N(C)C(=O)[C@H](Cc2c[nH]c3ccccc23)NC(=O)[C@H](CO)NC(=O)[C@H](Cc2c[nH]c3ccccc23)NC(=O)[C@@H]2C[C@@H](O)CN2C(=O)[C@H](CCC(N)=O)NC(=O)[C@H](Cc2cnc[nH]2)NC(=O)[C@@H]2CCCN2C(=O)[C@H](CC(=O)O)NC(=O)[C@@H]2CNCCN2C(=O)[C@H](Cc2ccc(O)cc2)NC(=O)CSC[C@@H](C(=O)NCC(N)=O)NC1=O [Example 1115] |  | IC50 ([1]; numeric value): 0.011 µM
C[C@H]1C(=O)N[C@@H](CC(=O)O)C(=O)N2CCC[C@H]2C(=O)N[C@@H](CN)C(=O)N[C@@H](CCC(=O)O)C(=O)N2C[C@H](O)C[C@H]2C(=O)N[C@@H](Cc2c[nH]c3ccccc23)C(=O)N[C@@H](CO)C(=O)N[C@@H](Cc2c[nH]c3ccccc23)C(=O)N(C)[C@H]2CCC/C=C\CCCC[C@@H](C(=O)N[C@@H](CCC(=O)O)C(=O)N[C@H](C(=O)NCC(N)=O)CSCC(=O)N[C@@H](Cc3ccc(O)cc3)C(=O)N1C)N(C)C2=O [Example 1116] | 0.01 to 0.099 µM | 
C[C@H]1C(=O)N[C@@H](CC(=O)O)C(=O)N2CCC[C@H]2C(=O)N[C@@H](CN)C(=O)N[C@@H](CCC(=O)O)C(=O)N2C[C@H](O)C[C@H]2C(=O)N[C@@H](Cc2c[nH]c3ccccc23)C(=O)N[C@@H](CO)C(=O)N[C@@H](Cc2cn(CC(=O)O)c3ccccc23)C(=O)N(C)[C@H]2CCCC/C=C\CCCC[C@@H](C(=O)N[C@@H](CCC(=O)O)C(=O)N[C@H](C(=O)NCC(N)=O)CSCC(=O)N[C@@H](Cc3ccc(O)cc3)C(=O)N1C)N(C)C2=O [Example 1117] | 0.002 to 0.0099 µM | 
C[C@H]1C(=O)N[C@@H](CC(=O)O)C(=O)N2CCC[C@H]2C(=O)N[C@@H](CN)C(=O)N[C@@H](CCC(=O)O)C(=O)N2C[C@H](O)C[C@H]2C(=O)N[C@@H](Cc2c[nH]c3ccccc23)C(=O)N[C@@H](CO)C(=O)N[C@@H](Cc2csc3ccccc23)C(=O)N(C)[C@H]2CCCC/C=C\CCCC[C@@H](C(=O)N[C@@H](CN)C(=O)N[C@H](C(=O)NCC(N)=O)CSCC(=O)N[C@@H](Cc3ccc(O)cc3)C(=O)N1C)N(C)C2=O [Example 1118] | 0.002 to 0.0099 µM | 
CN1C(=O)[C@H](Cc2csc3ccccc23)NC(=O)[C@H](CO)NC(=O)[C@H](Cc2c[nH]c3ccccc23)NC(=O)[C@@H]2C[C@@H](O)CN2C(=O)[C@H](CCC(N)=O)NC(=O)[C@H](CN)NC(=O)[C@@H]2CCCN2C(=O)[C@H](CC(=O)O)NC(=O)[C@@H]2CCCCN2C(=O)[C@H](Cc2ccc(O)cc2)NC(=O)CSC[C@@H](C(=O)NCC(N)=O)NC(=O)[C@H](CN)NC(=O)[C@@H]2CCCC/C=C\CCCC[C@H]1C(=O)N2C [Example 1119] | 0.002 to 0.0099 µM | 
C[C@@H]1NC(=O)[C@@H]2CCCC/C=C\CCCC[C@@H](C(=O)N2C)N(C)C(=O)[C@H](Cc2c[nH]c3ccccc23)NC(=O)[C@H](CO)NC(=O)[C@H](Cc2c[nH]c3ccccc23)NC(=O)[C@@H]2C[C@@H](O)CN2C(=O)[C@H](CCC(N)=O)NC(=O)[C@H](Cc2cnc[nH]2)NC(=O)[C@@H]2CCCN2C(=O)[C@H](CC(=O)O)NC(=O)[C@@H]2CCCCN2C(=O)[C@H](Cc2ccc(O)cc2)NC(=O)CSC[C@@H](C(=O)NCC(N)=O)NC1=O [Example 1120] |  | IC50 ([1]; numeric value): 0.004 µM
CN1C(=O)[C@H](Cc2cn(CC(=O)O)c3ccccc23)NC(=O)[C@H](CCN)NC(=O)[C@H](Cc2c[nH]c3ccccc23)NC(=O)[C@@H]2C[C@@H](O)CN2C(=O)[C@H](CCC(=O)O)NC(=O)[C@H](CN)NC(=O)[C@@H]2CCCN2C(=O)[C@H](CC(=O)O)NC(=O)[C@H]2CCCCN2C(=O)[C@H](Cc2ccc(O)cc2)NC(=O)CSC[C@@H](C(=O)NCC(N)=O)NC(=O)[C@H](CCC(=O)O)NC(=O)[C@@H]2Cc3ccc(cc3)OCC=CCCC[C@H]1C(=O)N2C [Example 1121] | 0.01 to 0.099 µM | 
C[C@H]1C(=O)N[C@@H](CC(=O)O)C(=O)N2CCC[C@H]2C(=O)N[C@@H](CN)C(=O)N[C@@H](CCC(=O)O)C(=O)N2C[C@H](O)C[C@H]2C(=O)N[C@@H](Cc2c[nH]c3ccccc23)C(=O)N[C@@H](CCN)C(=O)N[C@@H](Cc2cn(CC(=O)O)c3ccccc23)C(=O)N(C)C2CCCCC/C=C\CCCC[C@@H](C(=O)N[C@@H](CCC(=O)O)C(=O)N[C@H](C(=O)NCC(N)=O)CSCC(=O)N[C@@H](Cc3ccc(O)cc3)C(=O)N1C)N(C)C2=O [Example 1122] | 0.002 to 0.0099 µM | 
CCCC1O[C@@H]2C[C@H]3[C@@H]4CCC5=CC(=O)C=C[C@]5(C)[C@H]4[C@@H](O)C[C@]3(C)[C@]2(C(=O)CO)O1 (stereo partly shown) [budesonide] |  | bioavailability [2]: about 10%
